Data reported in ChEMBL document CHEMBL5715936, “Selective Itk inhibitors block T-cell activation and murine lung inflammation” (Biochemistry, 2004).
pIC50: −log10 of the molar value. Active and inactive are the calls of the source. No cut-off for these calls is given here.

Assays:
[1] = target: Tyrosine-protein kinase BTK (Homo sapiens, UniProt Q06187); experiment: Inhibition of Btk (unknown origin) using GST-SLP-76 as peptide substrate incubated for 10 mins in presence of [gamma-33P]ATP by scintillation counter assay
[2] = target: T1, Cytoplasmic tyrosine-protein kinase BMX (Homo sapiens, UniProt P51813); experiment: Inhibition of Bmx (unknown origin) using GST-SLP-76 as peptide substrate incubated for 10 mins in presence of [gamma-33P]ATP by scintillation counter assay
T1 sequence (P51813 whole entry): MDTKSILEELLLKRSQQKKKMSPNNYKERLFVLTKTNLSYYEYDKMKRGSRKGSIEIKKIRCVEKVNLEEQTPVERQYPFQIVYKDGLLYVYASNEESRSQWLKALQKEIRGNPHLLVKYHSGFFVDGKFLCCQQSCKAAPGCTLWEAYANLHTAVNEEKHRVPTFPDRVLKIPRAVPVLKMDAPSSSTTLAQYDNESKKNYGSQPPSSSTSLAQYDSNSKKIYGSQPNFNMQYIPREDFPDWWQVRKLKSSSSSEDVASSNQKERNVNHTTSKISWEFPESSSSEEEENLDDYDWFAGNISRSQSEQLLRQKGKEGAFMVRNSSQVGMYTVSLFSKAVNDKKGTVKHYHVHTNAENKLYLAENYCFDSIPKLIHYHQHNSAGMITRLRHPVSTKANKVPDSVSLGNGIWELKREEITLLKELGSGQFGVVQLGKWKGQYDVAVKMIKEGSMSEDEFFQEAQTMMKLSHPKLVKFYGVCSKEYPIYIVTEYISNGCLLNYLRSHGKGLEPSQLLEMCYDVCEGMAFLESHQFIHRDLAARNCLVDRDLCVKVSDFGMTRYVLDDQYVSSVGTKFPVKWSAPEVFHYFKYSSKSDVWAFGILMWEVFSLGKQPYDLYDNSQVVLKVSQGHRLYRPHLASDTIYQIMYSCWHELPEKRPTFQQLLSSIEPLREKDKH

[3] = target: T2, Tyrosine-protein kinase ZAP-70 (Homo sapiens, UniProt P43403); experiment: Inhibition of ZAP-70 (unknown origin) using GST-SLP-76 as peptide substrate incubated for 10 mins in presence of [gamma-33P]ATP by scintillation counter assay
T2 sequence (P43403 whole entry): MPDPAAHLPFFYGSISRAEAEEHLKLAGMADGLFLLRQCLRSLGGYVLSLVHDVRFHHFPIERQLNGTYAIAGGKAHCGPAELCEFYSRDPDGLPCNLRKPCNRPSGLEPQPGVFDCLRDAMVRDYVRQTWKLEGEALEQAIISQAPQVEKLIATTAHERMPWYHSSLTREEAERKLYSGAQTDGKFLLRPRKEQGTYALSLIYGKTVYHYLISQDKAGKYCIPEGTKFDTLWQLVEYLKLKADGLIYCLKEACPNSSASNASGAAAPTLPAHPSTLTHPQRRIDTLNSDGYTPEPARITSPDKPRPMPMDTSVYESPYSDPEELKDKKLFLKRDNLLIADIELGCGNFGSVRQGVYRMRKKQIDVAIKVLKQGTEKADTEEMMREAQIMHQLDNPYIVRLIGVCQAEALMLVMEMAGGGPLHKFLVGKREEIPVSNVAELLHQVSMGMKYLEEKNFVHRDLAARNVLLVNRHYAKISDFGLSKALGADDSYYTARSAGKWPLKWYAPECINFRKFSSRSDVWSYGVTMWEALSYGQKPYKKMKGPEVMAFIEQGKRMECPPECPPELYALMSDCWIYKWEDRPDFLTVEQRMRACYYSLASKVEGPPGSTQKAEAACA

Insulin receptor = Insulin receptor (Homo sapiens, UniProt P06213); experiment: Inhibition of IR (unknown origin) using GST-SLP-76 as peptide substrate incubated for 10 mins in presence of [gamma-33P]ATP by scintillation counter assay
[4] = target: RAC-alpha serine/threonine-protein kinase (Homo sapiens, UniProt P31749); experiment: Inhibition of Akt1 (unknown origin) using GST-SLP-76 as peptide substrate incubated for 10 mins in presence of [gamma-33P]ATP by scintillation counter assay
[5] = target: T3, Tyrosine-protein kinase ITK/TSK (Homo sapiens) (UniProt Q08881); experiment: Inhibition of Itk in human Jurkat T cells assessed as inhibition of tyrosine phosphorylation with 145 kDa molecular weight at 0.1 to 10 uM incubated for 20 mins in presence of CD3 antibody G19-4 by Western blotting analysis; format: cell-based; details: dose 0.1-10 µM
T3 sequence (whole entry): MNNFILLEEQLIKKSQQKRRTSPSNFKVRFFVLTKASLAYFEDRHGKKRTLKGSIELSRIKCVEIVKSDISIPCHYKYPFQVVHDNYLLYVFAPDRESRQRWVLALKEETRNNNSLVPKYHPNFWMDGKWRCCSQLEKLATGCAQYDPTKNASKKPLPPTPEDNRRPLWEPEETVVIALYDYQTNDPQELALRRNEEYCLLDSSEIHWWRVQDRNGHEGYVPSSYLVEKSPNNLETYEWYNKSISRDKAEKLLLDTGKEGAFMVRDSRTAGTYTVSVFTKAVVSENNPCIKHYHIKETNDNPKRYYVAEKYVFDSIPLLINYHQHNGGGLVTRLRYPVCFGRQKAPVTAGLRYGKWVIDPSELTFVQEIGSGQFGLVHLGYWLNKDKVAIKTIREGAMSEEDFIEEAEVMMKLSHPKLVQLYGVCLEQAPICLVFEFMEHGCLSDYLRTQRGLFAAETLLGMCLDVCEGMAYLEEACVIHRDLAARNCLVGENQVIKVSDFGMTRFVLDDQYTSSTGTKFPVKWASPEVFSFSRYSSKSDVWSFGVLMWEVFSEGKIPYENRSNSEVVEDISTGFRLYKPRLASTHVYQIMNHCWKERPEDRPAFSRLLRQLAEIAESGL

[6] = target: T3, Tyrosine-protein kinase ITK/TSK (Homo sapiens); experiment: Inhibition of Itk in EGF-stimulated human A549 cells assessed as reduction in tyrosine phosphorylation at <=10 uM incubated for 20 mins by Western blotting analysis; format: cell-based
[7] = target: T3, Tyrosine-protein kinase ITK/TSK (Homo sapiens); experiment: Inhibition of Itk in EGF-stimulated human A549 cells assessed as reduction in PLCgamma1 phosphorylation at <=10 uM incubated for 20 mins by Western blotting analysis; format: cell-based
T-cell line = experiment: Anti-proliferative activity against irradiated APC induced human T cell incubated for 3 days; format: functional, cell-based; details: light or radiation study, 72 h

Chain of RAC-alpha serine/threonine-protein kinase (P31749 whole entry): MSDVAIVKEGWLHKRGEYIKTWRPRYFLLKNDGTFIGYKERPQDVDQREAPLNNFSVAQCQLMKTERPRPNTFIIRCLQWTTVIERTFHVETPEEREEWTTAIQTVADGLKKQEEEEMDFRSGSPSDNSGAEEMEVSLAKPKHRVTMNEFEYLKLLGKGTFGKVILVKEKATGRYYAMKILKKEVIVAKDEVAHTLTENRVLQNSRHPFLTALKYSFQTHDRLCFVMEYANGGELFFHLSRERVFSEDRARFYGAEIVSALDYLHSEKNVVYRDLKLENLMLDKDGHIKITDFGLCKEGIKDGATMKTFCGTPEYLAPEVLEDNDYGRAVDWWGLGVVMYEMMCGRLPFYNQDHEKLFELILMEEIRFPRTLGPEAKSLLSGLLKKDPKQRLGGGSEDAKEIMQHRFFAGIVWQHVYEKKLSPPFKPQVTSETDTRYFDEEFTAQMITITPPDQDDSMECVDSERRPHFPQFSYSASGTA
Chain of Insulin receptor (P06213 28-758 limits assumed): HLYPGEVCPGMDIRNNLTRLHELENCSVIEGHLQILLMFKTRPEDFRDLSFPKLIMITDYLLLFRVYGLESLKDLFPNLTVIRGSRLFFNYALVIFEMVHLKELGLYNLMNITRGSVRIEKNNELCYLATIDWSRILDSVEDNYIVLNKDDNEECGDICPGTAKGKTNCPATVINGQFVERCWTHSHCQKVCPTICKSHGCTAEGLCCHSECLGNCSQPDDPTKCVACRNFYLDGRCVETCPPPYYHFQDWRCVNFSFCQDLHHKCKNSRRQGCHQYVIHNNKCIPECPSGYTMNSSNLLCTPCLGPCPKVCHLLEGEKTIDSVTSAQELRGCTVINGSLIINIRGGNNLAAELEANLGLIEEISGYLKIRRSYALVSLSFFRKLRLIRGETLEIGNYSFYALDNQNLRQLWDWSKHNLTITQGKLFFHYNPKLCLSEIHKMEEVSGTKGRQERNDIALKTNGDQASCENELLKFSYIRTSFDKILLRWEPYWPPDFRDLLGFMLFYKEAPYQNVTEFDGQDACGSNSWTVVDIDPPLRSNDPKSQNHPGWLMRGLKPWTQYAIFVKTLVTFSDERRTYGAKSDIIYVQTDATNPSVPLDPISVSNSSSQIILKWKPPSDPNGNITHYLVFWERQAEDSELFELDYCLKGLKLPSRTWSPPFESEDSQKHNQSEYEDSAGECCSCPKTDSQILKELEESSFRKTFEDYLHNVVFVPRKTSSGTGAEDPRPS
Chain of Insulin receptor (P06213 763-1382 limits assumed): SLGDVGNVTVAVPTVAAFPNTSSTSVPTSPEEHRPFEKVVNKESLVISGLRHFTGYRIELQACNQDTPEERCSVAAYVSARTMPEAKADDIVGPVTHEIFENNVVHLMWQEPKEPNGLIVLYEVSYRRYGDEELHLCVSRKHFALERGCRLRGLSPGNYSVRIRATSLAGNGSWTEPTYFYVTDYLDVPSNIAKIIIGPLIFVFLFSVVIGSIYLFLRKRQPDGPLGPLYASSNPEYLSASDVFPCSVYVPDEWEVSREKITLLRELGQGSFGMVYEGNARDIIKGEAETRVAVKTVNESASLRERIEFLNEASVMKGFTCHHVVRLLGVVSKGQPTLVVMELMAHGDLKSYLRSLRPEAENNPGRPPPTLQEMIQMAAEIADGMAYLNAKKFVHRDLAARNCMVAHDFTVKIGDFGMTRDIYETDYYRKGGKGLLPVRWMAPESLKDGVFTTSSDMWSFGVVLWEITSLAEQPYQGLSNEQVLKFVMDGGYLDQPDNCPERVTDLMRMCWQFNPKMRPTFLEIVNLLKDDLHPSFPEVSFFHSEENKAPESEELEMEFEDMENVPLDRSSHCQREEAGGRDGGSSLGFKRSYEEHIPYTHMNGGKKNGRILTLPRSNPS
Chain of Tyrosine-protein kinase BTK (Q06187 whole entry): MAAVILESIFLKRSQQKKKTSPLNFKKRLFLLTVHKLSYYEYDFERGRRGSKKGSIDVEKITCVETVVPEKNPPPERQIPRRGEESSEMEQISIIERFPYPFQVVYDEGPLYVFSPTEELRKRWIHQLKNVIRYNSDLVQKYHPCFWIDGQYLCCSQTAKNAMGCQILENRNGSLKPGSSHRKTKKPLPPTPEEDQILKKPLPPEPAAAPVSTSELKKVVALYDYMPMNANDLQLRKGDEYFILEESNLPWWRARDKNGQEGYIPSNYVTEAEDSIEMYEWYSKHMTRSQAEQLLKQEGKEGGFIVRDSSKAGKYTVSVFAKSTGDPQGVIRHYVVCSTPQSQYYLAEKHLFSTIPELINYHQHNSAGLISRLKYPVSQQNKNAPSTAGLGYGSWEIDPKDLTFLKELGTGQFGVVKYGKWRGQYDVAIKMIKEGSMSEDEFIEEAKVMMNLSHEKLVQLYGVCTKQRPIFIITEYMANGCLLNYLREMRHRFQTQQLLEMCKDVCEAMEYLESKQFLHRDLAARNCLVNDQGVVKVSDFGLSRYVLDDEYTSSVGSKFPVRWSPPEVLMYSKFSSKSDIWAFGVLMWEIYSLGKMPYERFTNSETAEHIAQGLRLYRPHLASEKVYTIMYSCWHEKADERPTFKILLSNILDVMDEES

Row | Compound | pIC50 [1] | pIC50 [2] | pIC50 [3] | pIC50 (Insulin receptor) | pIC50 [4] | inhibition [5] | inhibition [6] | inhibition [7] | pIC50 (T-cell line)
1 | CC(=O)N1CCN(C(=O)c2cc(CSc3cnc(NC(=O)c4ccc(CNC(C)C(C)(C)C)cc4)s3)cc(C)c2C)CC1 (stereo not drawn) | < 4.30 | < 4.30 | < 4.30 | 5.36 | < 4.30 | Active | Active | Active | 6.46
2 | COc1cc(C)c(Sc2cnc(NC(=O)c3ccc(CNC(C)C(C)(C)C)cc3)s2)cc1C(=O)N1CCN(C(C)=O)CC1 (stereo not drawn) | 5.39 | < 4.30 | < 4.30 | 5.96 | < 4.30 | Active | Active | Active | 6.37
